# Test results from PubChem BioAssay (NCI).
#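 Tested at 5 concentrations; 48 h exposure; 96-well plates; endpoints linearly interpolated, else capped at highest concentration. TGI: total growth inhibition.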
# Tests used:
# Test in all cases: NCI anticancer screen, dose series, 48 h
# 786-0 renal = system: 786-0 renal
# A498 renal = system: A498 renal
# A549 NSCLC = system: A549 NSCLC
# ACHN renal = system: ACHN renal
# CAKI-1 renal = system: CAKI-1 renal
# CCRF-CEM leukemia = system: CCRF-CEM leukemia
# COLO 205 colon = system: COLO 205 colon
# DLD-1 colon = system: DLD-1 colon
# DMS 114 small cell lung = system: DMS 114 small cell lung
# DMS 273 small cell lung = system: DMS 273 small cell lung
# EKVX NSCLC = system: EKVX NSCLC
# HCT-116 colon = system: HCT-116 colon
# HCT-15 colon = system: HCT-15 colon
# HL-60(TB) leukemia = system: HL-60(TB) leukemia
# HOP-62 NSCLC = system: HOP-62 NSCLC
# HOP-92 NSCLC = system: HOP-92 NSCLC
# K-562 leukemia = system: K-562 leukemia
# KM12 colon = system: KM12 colon
# KM20L2 colon = system: KM20L2 colon
# LOX IMVI melanoma = system: LOX IMVI melanoma
# M14 melanoma = system: M14 melanoma
# M19-MEL melanoma = system: M19-MEL melanoma
# MOLT-4 leukemia = system: MOLT-4 leukemia
# NCI-H23 lung = system: NCI-H23 lung
# NCI-H460 lung = system: NCI-H460 lung
# NCI-H522 lung = system: NCI-H522 lung
# OVCAR-3 ovarian = system: OVCAR-3 ovarian
# OVCAR-4 ovarian = system: OVCAR-4 ovarian
# OVCAR-8 ovarian = system: OVCAR-8 ovarian
# RPMI-8226 leukemia = system: RPMI-8226 leukemia
# RXF 393 renal = system: RXF 393 renal
# RXF-631 renal = system: RXF-631 renal
# SF-268 CNS = system: SF-268 CNS
# SF-295 CNS = system: SF-295 CNS
# SF-539 CNS = system: SF-539 CNS
# SK-MEL-2 melanoma = system: SK-MEL-2 melanoma
# SK-MEL-28 melanoma = system: SK-MEL-28 melanoma
# SK-MEL-5 melanoma = system: SK-MEL-5 melanoma
# SK-OV-3 ovarian = system: SK-OV-3 ovarian
# SN12C renal = system: SN12C renal
# SNB-19 CNS = system: SNB-19 CNS
# SNB-75 CNS = system: SNB-75 CNS
# SNB-78 CNS = system: SNB-78 CNS
# SR leukemia = system: SR leukemia
# SW-620 colon = system: SW-620 colon
# TK-10 renal = system: TK-10 renal
# U251 CNS = system: U251 CNS
# UACC-257 melanoma = system: UACC-257 melanoma
# UACC-62 melanoma = system: UACC-62 melanoma
# UO-31 renal = system: UO-31 renal
# XF 498 CNS = system: XF 498 CNS
# HCC-2998 colon = system: HCC-2998 colon
# HOP-18 NSCLC = system: HOP-18 NSCLC
# HT29 colon = system: HT29 colon
# LXFL 529 NSCLC = system: LXFL 529 NSCLC
# MALME-3M melanoma = system: MALME-3M melanoma
# NCI-H226 lung = system: NCI-H226 lung
# OVCAR-5 ovarian = system: OVCAR-5 ovarian
# IGROV1 ovarian = system: IGROV1 ovarian
smiles,measurement,setting,value
c1ccc(SC2(Sc3ccccc3)CCCC2)cc1,TGI,786-0 renal,> 100 µM
same,TGI,A498 renal,> 100 µM
same,TGI,A549 NSCLC,> 100 µM
same,TGI,ACHN renal,> 100 µM
same,TGI,CAKI-1 renal,> 100 µM
same,TGI,CCRF-CEM leukemia,> 100 µM
same,TGI,COLO 205 colon,> 100 µM
same,TGI,DLD-1 colon,> 100 µM
same,TGI,DMS 114 small cell lung,> 100 µM
same,TGI,DMS 273 small cell lung,> 100 µM
same,TGI,EKVX NSCLC,> 100 µM
same,TGI,HCT-116 colon,> 100 µM
same,TGI,HCT-15 colon,> 100 µM
same,TGI,HL-60(TB) leukemia,> 100 µM
same,TGI,HOP-62 NSCLC,> 100 µM
same,TGI,HOP-92 NSCLC,> 100 µM
same,TGI,K-562 leukemia,> 100 µM
same,TGI,KM12 colon,> 100 µM
same,TGI,KM20L2 colon,> 100 µM
same,TGI,LOX IMVI melanoma,> 100 µM
same,TGI,M14 melanoma,> 100 µM
same,TGI,M19-MEL melanoma,> 100 µM
same,TGI,MOLT-4 leukemia,> 100 µM
same,TGI,NCI-H23 lung,> 100 µM
same,TGI,NCI-H460 lung,> 100 µM
same,TGI,NCI-H522 lung,> 100 µM
same,TGI,OVCAR-3 ovarian,> 100 µM
same,TGI,OVCAR-4 ovarian,> 100 µM
same,TGI,OVCAR-8 ovarian,> 100 µM
same,TGI,RPMI-8226 leukemia,> 100 µM
same,TGI,RXF 393 renal,> 100 µM
same,TGI,RXF-631 renal,> 100 µM
same,TGI,SF-268 CNS,> 100 µM
same,TGI,SF-295 CNS,> 100 µM
same,TGI,SF-539 CNS,> 100 µM
same,TGI,SK-MEL-2 melanoma,> 100 µM
same,TGI,SK-MEL-28 melanoma,> 100 µM
same,TGI,SK-MEL-5 melanoma,> 100 µM
same,TGI,SK-OV-3 ovarian,> 100 µM
same,TGI,SN12C renal,> 100 µM
same,TGI,SNB-19 CNS,> 100 µM
same,TGI,SNB-75 CNS,> 100 µM
same,TGI,SNB-78 CNS,> 100 µM
same,TGI,SR leukemia,> 100 µM
same,TGI,SW-620 colon,> 100 µM
same,TGI,TK-10 renal,> 100 µM
same,TGI,U251 CNS,> 100 µM
same,TGI,UACC-257 melanoma,> 100 µM
same,TGI,UACC-62 melanoma,> 100 µM
same,TGI,UO-31 renal,> 100 µM
same,TGI,XF 498 CNS,> 100 µM
CCC(C)CN1C(=O)NC(C)(Cc2ccccc2)C1=O (stereo not drawn),TGI,786-0 renal,> 100 µM
same,TGI,A549 NSCLC,> 100 µM
same,TGI,ACHN renal,> 100 µM
same,TGI,CAKI-1 renal,> 100 µM
same,TGI,COLO 205 colon,> 100 µM
same,TGI,DLD-1 colon,> 100 µM
same,TGI,DMS 114 small cell lung,> 100 µM
same,TGI,DMS 273 small cell lung,> 100 µM
same,TGI,EKVX NSCLC,> 100 µM
same,TGI,HCC-2998 colon,> 100 µM
same,TGI,HL-60(TB) leukemia,> 100 µM
same,TGI,HOP-18 NSCLC,> 100 µM
same,TGI,HOP-62 NSCLC,> 100 µM
same,TGI,HOP-92 NSCLC,> 100 µM
same,TGI,HT29 colon,> 100 µM
same,TGI,KM12 colon,> 100 µM
same,TGI,KM20L2 colon,> 100 µM
same,TGI,LOX IMVI melanoma,> 100 µM
same,TGI,LXFL 529 NSCLC,> 100 µM
same,TGI,M14 melanoma,> 100 µM
same,TGI,M19-MEL melanoma,> 100 µM
same,TGI,MALME-3M melanoma,> 100 µM
same,TGI,NCI-H226 lung,> 100 µM
same,TGI,NCI-H23 lung,> 100 µM
same,TGI,NCI-H460 lung,> 100 µM
same,TGI,NCI-H522 lung,> 100 µM
same,TGI,OVCAR-5 ovarian,> 100 µM
same,TGI,OVCAR-8 ovarian,> 100 µM
same,TGI,RXF 393 renal,> 100 µM
same,TGI,SF-268 CNS,> 100 µM
same,TGI,SF-295 CNS,> 100 µM
same,TGI,SF-539 CNS,> 100 µM
same,TGI,SK-MEL-2 melanoma,> 100 µM
same,TGI,SK-MEL-28 melanoma,> 100 µM
same,TGI,SK-MEL-5 melanoma,> 100 µM
same,TGI,SN12C renal,> 100 µM
same,TGI,SNB-19 CNS,> 100 µM
same,TGI,SNB-75 CNS,> 100 µM
same,TGI,SNB-78 CNS,> 100 µM
same,TGI,SR leukemia,> 100 µM
same,TGI,SW-620 colon,> 100 µM
same,TGI,TK-10 renal,> 100 µM
same,TGI,U251 CNS,> 100 µM
same,TGI,UACC-257 melanoma,> 100 µM
same,TGI,UO-31 renal,> 100 µM
same,TGI,XF 498 CNS,> 100 µM
CC1=C(C(=O)NCc2ccccc2)C(c2ccc(C3C(C(=O)NCc4ccccc4)=C(C)NC(C)=C3C(=O)NCc3ccccc3)cc2)C(C(=O)NCc2ccccc2)=C(C)N1,TGI,786-0 renal,28.9 µM
same,TGI,A498 renal,31.7 µM
same,TGI,A549 NSCLC,61.3 µM
same,TGI,ACHN renal,29.6 µM
same,TGI,CAKI-1 renal,34.9 µM
same,TGI,CCRF-CEM leukemia,> 100 µM
same,TGI,COLO 205 colon,21.3 µM
same,TGI,DLD-1 colon,13.1 µM
same,TGI,DMS 114 small cell lung,25.9 µM
same,TGI,DMS 273 small cell lung,31.7 µM
same,TGI,EKVX NSCLC,28.9 µM
same,TGI,HCC-2998 colon,35.3 µM
same,TGI,HCT-116 colon,10.2 µM
same,TGI,HCT-15 colon,39 µM
same,TGI,HL-60(TB) leukemia,44.7 µM
same,TGI,HOP-18 NSCLC,52.7 µM
same,TGI,HOP-62 NSCLC,41.1 µM
same,TGI,HOP-92 NSCLC,32.9 µM
same,TGI,HT29 colon,20.3 µM
same,TGI,IGROV1 ovarian,37.8 µM
same,TGI,K-562 leukemia,> 100 µM
same,TGI,KM12 colon,24.4 µM
same,TGI,KM20L2 colon,29 µM
same,TGI,LXFL 529 NSCLC,15.5 µM
same,TGI,M14 melanoma,24.1 µM
same,TGI,M19-MEL melanoma,21.3 µM
same,TGI,MALME-3M melanoma,36.3 µM
same,TGI,MOLT-4 leukemia,> 100 µM
same,TGI,NCI-H226 lung,33.7 µM
same,TGI,NCI-H23 lung,33.1 µM
same,TGI,NCI-H460 lung,> 100 µM
same,TGI,NCI-H522 lung,10.1 µM
same,TGI,OVCAR-3 ovarian,22.9 µM
same,TGI,OVCAR-4 ovarian,31.3 µM
same,TGI,OVCAR-5 ovarian,39.9 µM
same,TGI,OVCAR-8 ovarian,20.9 µM
same,TGI,RPMI-8226 leukemia,> 100 µM
same,TGI,RXF 393 renal,33.4 µM
same,TGI,SF-268 CNS,81.7 µM
same,TGI,SF-295 CNS,38.2 µM
same,TGI,SF-539 CNS,5.52 µM
same,TGI,SK-MEL-2 melanoma,49.9 µM
same,TGI,SK-MEL-28 melanoma,25.2 µM
same,TGI,SK-MEL-5 melanoma,30.9 µM
same,TGI,SN12C renal,20.5 µM
same,TGI,SNB-19 CNS,29.2 µM
same,TGI,SNB-78 CNS,27.1 µM
same,TGI,SR leukemia,20.7 µM
same,TGI,SW-620 colon,22.7 µM
same,TGI,TK-10 renal,37.8 µM
same,TGI,U251 CNS,14.4 µM
same,TGI,UACC-257 melanoma,32.5 µM
same,TGI,UACC-62 melanoma,22.2 µM
same,TGI,UO-31 renal,35.7 µM
same,TGI,XF 498 CNS,31.1 µM
N#Cc1cccc(N2C(=O)c3c(c(-c4ccccc4)c(-c4ccc(Sc5ccc(-c6c(-c7ccccc7)c7c(c(-c8ccccc8)c6-c6ccccc6)C(=O)N(c6cccc(C#N)c6)C7=O)cc5)cc4)c(-c4ccccc4)c3-c3ccccc3)C2=O)c1,TGI,786-0 renal,> 100 µM
same,TGI,A549 NSCLC,> 100 µM
same,TGI,ACHN renal,> 100 µM
same,TGI,CCRF-CEM leukemia,> 100 µM
same,TGI,COLO 205 colon,> 100 µM
same,TGI,DLD-1 colon,> 100 µM
same,TGI,DMS 114 small cell lung,> 100 µM
same,TGI,DMS 273 small cell lung,> 100 µM
same,TGI,EKVX NSCLC,> 100 µM
same,TGI,HCC-2998 colon,> 100 µM
same,TGI,HCT-116 colon,> 100 µM
same,TGI,HCT-15 colon,> 100 µM
same,TGI,HL-60(TB) leukemia,> 100 µM
same,TGI,HOP-62 NSCLC,> 100 µM
same,TGI,HOP-92 NSCLC,99.4 µM
same,TGI,HT29 colon,> 100 µM
same,TGI,IGROV1 ovarian,> 100 µM
same,TGI,K-562 leukemia,> 100 µM
same,TGI,KM12 colon,> 100 µM
same,TGI,KM20L2 colon,> 100 µM
same,TGI,LOX IMVI melanoma,> 100 µM
same,TGI,LXFL 529 NSCLC,> 100 µM
same,TGI,M14 melanoma,> 100 µM
same,TGI,MALME-3M melanoma,> 100 µM
same,TGI,MOLT-4 leukemia,> 100 µM
same,TGI,NCI-H23 lung,> 100 µM
same,TGI,NCI-H460 lung,> 100 µM
same,TGI,NCI-H522 lung,> 100 µM
same,TGI,OVCAR-3 ovarian,> 100 µM
same,TGI,OVCAR-4 ovarian,> 100 µM
same,TGI,OVCAR-5 ovarian,> 100 µM
same,TGI,OVCAR-8 ovarian,> 100 µM
same,TGI,RPMI-8226 leukemia,> 100 µM
same,TGI,RXF 393 renal,59.2 µM
same,TGI,RXF-631 renal,> 100 µM
same,TGI,SF-268 CNS,> 100 µM
same,TGI,SF-295 CNS,> 100 µM
same,TGI,SF-539 CNS,> 100 µM
same,TGI,SK-MEL-2 melanoma,> 100 µM
same,TGI,SK-MEL-28 melanoma,> 100 µM
same,TGI,SK-MEL-5 melanoma,> 100 µM
same,TGI,SN12C renal,> 100 µM
same,TGI,SNB-19 CNS,> 100 µM
same,TGI,SNB-78 CNS,> 100 µM
same,TGI,SW-620 colon,> 100 µM
same,TGI,TK-10 renal,> 100 µM
same,TGI,U251 CNS,54.2 µM
same,TGI,UACC-257 melanoma,> 100 µM
same,TGI,UACC-62 melanoma,> 100 µM
same,TGI,UO-31 renal,> 100 µM
same,TGI,XF 498 CNS,85 µM
